Results: patent publication US8575193B2, “N-substituted tetrahydroisoquinoline/isoindoline hydroxamic acid compounds” (4SC AG, priority 2008, dated 2013)

Test system: nuclear HeLa extract (mixture of class I and II HDACs)
Experiment: Fluorimetric HDAC activity assay with nuclear HeLa extract
Type: biochemical, human
Details: nuclear HeLa extract inhibitory activity, substrate Ac-NH-GGK(Ac)-AMC 25 μM, 90 min at 30° C.
Procedure: HDAC activity is isolated from nuclear HeLa extracts according to a method original described by Dignam et al. (Nucl. Acids Res. 11, pp 1475, 1983). Briefly, nuclei isolated from HeLa cells (CIL SA, Seneffe, Belgium) are resuspended in buffer C (20 mM Hepes pH 7.9, 25% v:v glycerol, 0.42M NaCl, 1.5 mM MgCl2, 0.2 mM EDTA, 0.5 mM PefaBloc and 0.5 mM DTT) and stirred for 30 min on ice. After centrifugation, the supernatant is dialysed against buffer D (40 mM Tris HCl pH 7.4, 100 mM KCl, 0.2 mM EDTA, 0.5 mM DTT and 25% v:v glycerol) for 5 h at 4° C. After dialysis and centrifugation, the supernatant is stored in aliquots at −80° C. and used for Western blot analysis as well as the enzymatic assay as described in the following.
The HDAC enzyme activity assay is done as described by Wegener et al. (Chem. & Biol. 10, 61-68, 2003). […] After incubation at room temperature for further 40 min, fluorescence is measured using a Wallac Victor 1420 multilabel counter (Ex 355 nm, Em 460 nm) for quantification of AMC (7-amino-4-methylcoumarin) generated by trypsine cleavage of the deacetylated peptide. […] The corresponding pIC50 values of the compounds for HDAC inhibitory activity are determined from the concentration-effect curves by means of non-linear regression (Graphpad Prism software).

HeLa nuclear extract [pIC50] (listed as Ex. 11) | HeLa nuclear extract [pIC50] (listed as Ex. 15) | Compound
4.22 |  | COCCOCC(=O)N1CCc2cc(C(=O)NO)ccc2C1 [Example 11, N-Hydroxy-2-[(2-methoxyethoxy)acetyl]-1,2,3,4-tetrahydroisoquinoline-6-carboxamide]
 | 6.10 | COc1ccc2[nH]c(C(=O)N3CCc4cc(C(=O)NO)ccc4C3)cc2c1 [Example 15, N-Hydroxy-2-[(5-methoxy-1H-indol-2-yl)carbonyl]-1,2,3,4-tetrahydroisoquinoline-6-carboxamide]
